# Assay results taken from patent publication US20110118397A1, “RUBBER COMPOSITION” (BRIDGESTONE CORPORATION, priority 2008, published 2011).
# Key:
# [1] = octanol/water partition coefficient (log P) by high-performance liquid chromatography, JIS Z 7260-117 (2006)
# Source text: In the present invention (including examples and the like described later), the octanol/water partition coefficient (log P) described above can be measured by a high-performance liquid chromatography according to JIS Z 7260-117 (2006), and it is defined by the following equation:
# log P=log(^┌Co┘/^┌Cw┘) • Co: concentration of an examined substance in a 1-octanol layer • Cw: concentration of an examined substance in an aqueous layer
# The octanol/water partition coefficients (log P) of the vulcanization accelerators obtained in the following respective production examples were measured by a high-performance liquid chromatography according to JIS Z 7260-117 (2006). A high-performance liquid chromatography manufactured by Shimadzu Corporation was used.
# [2] = physchem
Compound,chromatographic logP [1],melting point,chromatographic logP [2]
CN(Sc1nc2ccccc2s1)C(C)(C)C [N-methyl-N-t-butylbenzothiazole-2-sulfenamide],4.5,56 to 58 °C,
CCN(Sc1nc2ccccc2s1)C(C)(C)C [N-ethyl-N-t-butylbenzothiazole-2-sulfenamide],4.9,60 to 61 °C,
CC(C)N(Sc1nc2ccccc2s1)C(C)(C)C [N-i-propyl-N-t-butylbenzothiazole-2-sulfenamide],,,5.1

# Further lines, with some results ahead:
chromatographic logP [1],melting point,Compound,chromatographic logP [2]
5.3,,CCCN(Sc1nc2ccccc2s1)C(C)(C)C [N-n-propyl-N-t-butylbenzothiazole-2-sulfenamide],
5.8,55 to 56 °C,CCCCN(Sc1nc2ccccc2s1)C(C)(C)C [N-n-butyl-N-t-butylbenzothiazole-2-sulfenamide],
